Legend:
[1] = test system: co-culture of keratinocytes and melanocytes; experiment: Inhibition of melanin synthesis (ratio of thiouracil to leucine incorporation) in a keratinocyte/melanocyte co-culture; format: cell-based; conditions: for IC50: ratio of thiouracil to leucine incorporation relative to 100% of control, read-out: IC50 (concentration for which a 50% inhibition of melanogenesis is observed)
Method: (§1) The melanogenesis-modulating effect of the compound of Example 2 was measured according to the method described in patent FR-A-2 734 825, and also in the article by R. Schmidt, P. Krien and M. Régnier, Anal. Biochem., 235(2), 113-18, (1996). This test is performed on a co-culture of keratinocytes and melanocytes.
(§2) The following were determined for the test compound: • the cytotoxicity, by estimating the incorporation of leucine, • the inhibitory activity on melanin synthesis, by estimating the ratio of the incorporation of thiouracil to the incorporation of leucine, relative to 100% of the control (the control corresponds to the test performed without test compound). The IC50 values (the concentration for which a 50% inhibition of melanogenesis is observed) were also determined.
(§3) The test was also performed with arbutin, which is a known depigmenting compound.

[2] = test system: co-culture of keratinocytes and melanocytes; experiment: Cytotoxicity by incorporation of leucine in a keratinocyte/melanocyte co-culture; format: cell-based; conditions: estimated by incorporation of leucine
Method: as §1, §2, §3

| IC50 [1] | Structure (SMILES) | Inhibition of melanogenesis (in words) ([1]; compared with arbutin) | Cytotoxicity [2] |
| --- | --- | --- | --- |
| 100 µM | OC[C@H]1O[C@@H](CC(O)c2ccc(O)cc2)[C@H](O)[C@@H](O)[C@@H]1O (some centres unmarked) [Example 2] | more efficient than arbutin | No |
| ≥ 100 µM | OC[C@H]1O[C@@H](Oc2ccc(O)cc2)[C@H](O)[C@@H](O)[C@@H]1O [Arbutin, arbutin, reference compound] |  | No |

— patent US20080193400A1, “C-Glycoside Compounds and Use Thereof for Depigmenting the Skin” (priority 2005, published 2008)
